From PubChem BioAssay (NCI)
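Method: 48-hour compound exposure of cells in 96-well plates, five concentrations, linear interpolation of endpoints. Abbreviation: GI50, concentration required for 50% inhibition of growth. TGI: concentration producing complete growth inhibition.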

Legend:
Assay in all cases: growth of human tumour cells (NCI), 48 h
A498 renal = tested on: A498 renal
ACHN renal = tested on: ACHN renal
CCRF-CEM leukemia = tested on: CCRF-CEM leukemia
HL-60(TB) leukemia = tested on: HL-60(TB) leukemia
HOP-62 NSCLC = tested on: HOP-62 NSCLC
RXF 393 renal = tested on: RXF 393 renal
SK-OV-3 ovarian = tested on: SK-OV-3 ovarian
MDA-MB-435 = tested on: MDA-MB-435
OVCAR-3 ovarian = tested on: OVCAR-3 ovarian
UACC-257 melanoma = tested on: UACC-257 melanoma
OVCAR-5 ovarian = tested on: OVCAR-5 ovarian
DU-145 prostate = tested on: DU-145 prostate
TK-10 renal = tested on: TK-10 renal
RPMI-8226 leukemia = tested on: RPMI-8226 leukemia
CAKI-1 renal = tested on: CAKI-1 renal
NCI-H226 lung = tested on: NCI-H226 lung
MOLT-4 leukemia = tested on: MOLT-4 leukemia
SF-268 CNS = tested on: SF-268 CNS
IGROV1 ovarian = tested on: IGROV1 ovarian
HCC-2998 colon = tested on: HCC-2998 colon
SNB-19 CNS = tested on: SNB-19 CNS
MALME-3M melanoma = tested on: MALME-3M melanoma
UO-31 renal = tested on: UO-31 renal
SK-MEL-5 melanoma = tested on: SK-MEL-5 melanoma
HS 578T breast = tested on: HS 578T breast
UACC-62 melanoma = tested on: UACC-62 melanoma
SF-539 CNS = tested on: SF-539 CNS
KM12 colon = tested on: KM12 colon
MCF7 breast = tested on: MCF7 breast
A549 NSCLC = tested on: A549 NSCLC
SK-MEL-2 melanoma = tested on: SK-MEL-2 melanoma
PC-3 prostate = tested on: PC-3 prostate
HT29 colon = tested on: HT29 colon
OVCAR-4 ovarian = tested on: OVCAR-4 ovarian
U251 CNS = tested on: U251 CNS
NCI-H522 lung = tested on: NCI-H522 lung
786-0 renal = tested on: 786-0 renal
EKVX NSCLC = tested on: EKVX NSCLC
MDA-MB-231 breast = tested on: MDA-MB-231 breast
OVCAR-8 ovarian = tested on: OVCAR-8 ovarian
SN12C renal = tested on: SN12C renal
NCI/ADR-RES ovarian = tested on: NCI/ADR-RES ovarian
K-562 leukemia = tested on: K-562 leukemia
SF-295 CNS = tested on: SF-295 CNS
SK-MEL-28 melanoma = tested on: SK-MEL-28 melanoma
M14 melanoma = tested on: M14 melanoma
T-47D breast = tested on: T-47D breast
NCI-H460 lung = tested on: NCI-H460 lung
SW-620 colon = tested on: SW-620 colon
HCT-15 colon = tested on: HCT-15 colon
SNB-75 CNS = tested on: SNB-75 CNS
HCT-116 colon = tested on: HCT-116 colon
NCI-H23 lung = tested on: NCI-H23 lung
SR leukemia = tested on: SR leukemia
COLO 205 colon = tested on: COLO 205 colon
LOX IMVI melanoma = tested on: LOX IMVI melanoma
HOP-92 NSCLC = tested on: HOP-92 NSCLC

## Cl.Fc1c[c-]c(-c2ccccn2)c(F)c1.[Pt].c1ccc([PH+](c2ccccc2)c2ccccc2[PH+](c2ccccc2)c2ccccc2)cc1
A498 renal
  GI50: 0.0493 µM
  TGI: 0.215 µM
ACHN renal
  GI50: 0.157 µM
  TGI: 0.46 µM
CCRF-CEM leukemia
  GI50: 0.078 µM
  TGI: 1.09 µM
HL-60(TB) leukemia
  GI50: 0.0395 µM
  TGI: 0.321 µM
HOP-62 NSCLC
  GI50: 0.0655 µM
  TGI: 0.32 µM
RXF 393 renal
  GI50: 0.137 µM
  TGI: 0.296 µM
SK-OV-3 ovarian
  GI50: 0.0883 µM
  TGI: 0.64 µM
MDA-MB-435
  GI50: 0.0825 µM
  TGI: 0.268 µM
OVCAR-3 ovarian
  GI50: 0.0629 µM
  TGI: 0.211 µM
UACC-257 melanoma
  GI50: 0.107 µM
  TGI: 0.698 µM
OVCAR-5 ovarian
  GI50: 0.14 µM
  TGI: 0.415 µM
DU-145 prostate
  GI50: 0.0677 µM
  TGI: 0.334 µM
TK-10 renal
  GI50: 0.141 µM
  TGI: 0.689 µM

## CC1(C)CC[C@]2(CO)CC[C@]3(C)C(=CC[C@@H]4[C@@]5(C)CC[C@H](NCO)C(C)(C)[C@@H]5CC[C@]43C)[C@@H]2C1
RPMI-8226 leukemia
  GI50: 1.75 µM
  TGI: 4.57 µM
A498 renal
  GI50: 1.38 µM
  TGI: 2.83 µM
CCRF-CEM leukemia
  GI50: 2.04 µM
  TGI: 5.94 µM
CAKI-1 renal
  GI50: 1.85 µM
  TGI: 3.52 µM
SK-OV-3 ovarian
  GI50: 3.29 µM
  TGI: 9.06 µM
NCI-H226 lung
  GI50: 2.26 µM
  TGI: 5.73 µM
MOLT-4 leukemia
  GI50: 1.91 µM
  TGI: 5.1 µM
SF-268 CNS
  GI50: 2.39 µM
  TGI: 6.22 µM

## COc1c(O)cc2c(c1CC=C(C)C)OC(=O)c1c(cc(O)c(CC=C(C)C)c1O)O2
RPMI-8226 leukemia
  GI50: 5.95 µM
  TGI: 15.7 µM
IGROV1 ovarian
  GI50: 4.14 µM
  TGI: 7.91 µM
HCC-2998 colon
  GI50: 2.56 µM
  TGI: 5.72 µM
SNB-19 CNS
  GI50: 4.5 µM
  TGI: 8.51 µM
MALME-3M melanoma
  GI50: 4.62 µM
  TGI: 8.7 µM
ACHN renal
  GI50: 3.93 µM
  TGI: 7.49 µM
UO-31 renal
  GI50: 4.22 µM
  TGI: 7.79 µM
CCRF-CEM leukemia
  GI50: 7.63 µM
  TGI: 25 µM
SK-MEL-5 melanoma
  GI50: 4.24 µM
  TGI: 7.91 µM
HL-60(TB) leukemia
  GI50: 5.76 µM
  TGI: 15.4 µM
HS 578T breast
  GI50: 2.96 µM
  TGI: 7.4 µM
HOP-62 NSCLC
  GI50: 4.19 µM
  TGI: 7.72 µM
CAKI-1 renal
  GI50: 4.32 µM
  TGI: 8.61 µM
UACC-62 melanoma
  GI50: 3.74 µM
  TGI: 7.48 µM
SF-539 CNS
  GI50: 4.46 µM
  TGI: 8.52 µM
KM12 colon
  GI50: 4.12 µM
  TGI: 7.71 µM
MCF7 breast
  GI50: 6.48 µM
  TGI: 25 µM
A549 NSCLC
  GI50: 4.26 µM
  TGI: 8.28 µM
SK-MEL-2 melanoma
  GI50: 4.38 µM
  TGI: 8.58 µM
PC-3 prostate
  GI50: 4.87 µM
  TGI: 9.7 µM
HT29 colon
  GI50: 4.39 µM
  TGI: 8.7 µM
OVCAR-4 ovarian
  GI50: 4.04 µM
  TGI: 7.61 µM
U251 CNS
  GI50: 4.23 µM
  TGI: 7.75 µM
NCI-H522 lung
  GI50: 4.16 µM
  TGI: 8.06 µM
786-0 renal
  GI50: 4.59 µM
  TGI: 8.47 µM
EKVX NSCLC
  GI50: 4.67 µM
  TGI: 8.74 µM
RXF 393 renal
  GI50: 4.02 µM
  TGI: 7.75 µM
MDA-MB-231 breast
  GI50: 4.23 µM
  TGI: 8.46 µM
SK-OV-3 ovarian
  GI50: 4.44 µM
  TGI: 8.01 µM
OVCAR-8 ovarian
  GI50: 4.47 µM
  TGI: 8.71 µM
MDA-MB-435
  GI50: 4.11 µM
  TGI: 7.94 µM
SN12C renal
  GI50: 3.67 µM
  TGI: 7.37 µM
OVCAR-3 ovarian
  GI50: 3.83 µM
  TGI: 7.2 µM
NCI-H226 lung
  GI50: 4.51 µM
  TGI: 8.86 µM
UACC-257 melanoma
  GI50: 4.06 µM
  TGI: 7.67 µM
NCI/ADR-RES ovarian
  GI50: 4.03 µM
  TGI: 8.69 µM
K-562 leukemia
  GI50: 5.91 µM
  TGI: 17 µM
SF-295 CNS
  GI50: 4.32 µM
  TGI: 8.13 µM
SK-MEL-28 melanoma
  GI50: 4.76 µM
  TGI: 9.52 µM
M14 melanoma
  GI50: 4.22 µM
  TGI: 8.5 µM
MOLT-4 leukemia
  GI50: 4.1 µM
  TGI: 12.7 µM
T-47D breast
  GI50: 4.48 µM
  TGI: 8.72 µM
OVCAR-5 ovarian
  GI50: 3.89 µM
  TGI: 7.85 µM
NCI-H460 lung
  GI50: 3.69 µM
  TGI: 7.29 µM
DU-145 prostate
  GI50: 4.18 µM
  TGI: 7.62 µM
SW-620 colon
  GI50: 3.42 µM
  TGI: 7.05 µM
HCT-15 colon
  GI50: 3.95 µM
  TGI: 8.94 µM
SNB-75 CNS
  GI50: 3.09 µM
  TGI: 6.45 µM
TK-10 renal
  GI50: 5.49 µM
  TGI: 11.7 µM
HCT-116 colon
  GI50: 3.91 µM
  TGI: 7.82 µM
NCI-H23 lung
  GI50: 3.45 µM
  TGI: 8.29 µM
SR leukemia
  GI50: 3.95 µM
  TGI: 10.5 µM
COLO 205 colon
  GI50: 4.51 µM
  TGI: 8.45 µM
LOX IMVI melanoma
  GI50: 3.53 µM
  TGI: 7.68 µM
SF-268 CNS
  GI50: 4.26 µM
  TGI: 7.82 µM
HOP-92 NSCLC
  GI50: 4.08 µM
  TGI: 7.78 µM
